ChEMBL document CHEMBL1201862, “PubChem BioAssay data set” (2004)
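Where inhibition never reached the appropriate level, the endpoint shown equals the highest concentration tested. Otherwise, values were interpolated linearly from a five-concentration, 48-hour dose response in 96-well plates. Abbreviation: GI50, concentration required for 50% inhibition of growth.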 Calls of active or inactive are those of the source. No stated cut-off is given here; in the data, active = GI50 up to about 1.1 µM and inactive = higher.

Key:
Assay in all cases: DTP human tumour cell line panel, 48 h
HOP-62 = test system: HOP-62
SK-MEL-5 = test system: SK-MEL-5
OVCAR-3 = test system: OVCAR-3
IGROV-1 = test system: IGROV-1
LOX IMVI = test system: LOX IMVI
SW-620 = test system: SW-620
Hs-578T = test system: Hs-578T
OVCAR-5 = test system: OVCAR-5
EKVX = test system: EKVX
MDA-N = test system: MDA-N
TK-10 = test system: TK-10
KM12 = test system: KM12
MOLT-4 = test system: MOLT-4
HT-29 = test system: HT-29
SN12C = test system: SN12C
UACC-62 = test system: UACC-62
SF-539 = test system: SF-539
CAKI-1 = test system: CAKI-1
K562 = test system: K562
HCT-15 = test system: HCT-15
HL-60 = test system: HL-60
HCC 2998 = test system: HCC 2998
CCRF-CEM = test system: CCRF-CEM
OVCAR-8 = test system: OVCAR-8
Malme-3M = test system: Malme-3M
A549 = test system: A549
COLO 205 = test system: COLO 205
SR = test system: SR
ACHN = test system: ACHN
786-0 = test system: 786-0
RXF 393 = test system: RXF 393
MDA-MB-231 = test system: MDA-MB-231
SK-MEL-2 = test system: SK-MEL-2
NCI-H460 = test system: NCI-H460
SNB-75 = test system: SNB-75
UO-31 = test system: UO-31
NCI-H23 = test system: NCI-H23
U-251 = test system: U-251
NCI/ADR-RES = test system: NCI/ADR-RES
SF-295 = test system: SF-295
NCI-H226 = test system: NCI-H226
OVCAR-4 = test system: OVCAR-4
BT-549 = test system: BT-549
A498 = test system: A498
SNB-19 = test system: SNB-19
UACC-257 = test system: UACC-257
PC-3 = test system: PC-3
SK-OV-3 = test system: SK-OV-3
SK-MEL-28 = test system: SK-MEL-28
HCT-116 = test system: HCT-116
HOP-92 = test system: HOP-92
M14 = test system: M14
MCF7 = test system: MCF7
T47D = test system: T47D
MDA-MB-435 = test system: MDA-MB-435
NCI-H522 = test system: NCI-H522
SF-268 = test system: SF-268
RPMI-8226 = test system: RPMI-8226
DU-145 = test system: DU-145

Measured: GI50

CNC(=O)N1N[C@H](c2ccccc2)[C@@H]1c1ccccc1.OB(O)O
24.3 µM: HCT-15
inactive: HOP-62 28.6 µM | SK-MEL-5 16.3 µM | OVCAR-3 17 µM | IGROV-1 18.6 µM | LOX IMVI 18 µM | SW-620 28.4 µM | Hs-578T 22.5 µM | OVCAR-5 29.9 µM | EKVX 22.2 µM | MDA-N 28.1 µM | TK-10 40.4 µM | KM12 17 µM | MOLT-4 18.7 µM | HT-29 16.4 µM | SN12C 25.5 µM | UACC-62 13.2 µM | SF-539 17.9 µM | CAKI-1 32.7 µM | K562 22.6 µM | HL-60 23.7 µM | HCC 2998 31 µM | CCRF-CEM 32.4 µM | OVCAR-8 14.5 µM | Malme-3M 19.7 µM | A549 28.4 µM | COLO 205 20 µM | SR 18.4 µM | ACHN 36.6 µM | 786-0 32.4 µM | RXF 393 14.2 µM | MDA-MB-231 28.8 µM | SK-MEL-2 15.3 µM | NCI-H460 21.8 µM | SNB-75 15.6 µM | UO-31 22.5 µM | NCI-H23 22.6 µM | U-251 20 µM | NCI/ADR-RES 15.4 µM | SF-295 17.3 µM | NCI-H226 16.7 µM | OVCAR-4 42 µM | BT-549 19.3 µM | A498 20.6 µM | SNB-19 46.1 µM | UACC-257 35.9 µM | PC-3 28.1 µM | SK-OV-3 34 µM | SK-MEL-28 18 µM | HCT-116 17.9 µM | HOP-92 26.3 µM | M14 21.9 µM | MCF7 24 µM

CC1CC[P+](c2ccccc2)(c2ccccc2)c2c1ccc1ccccc21 (centres undefined)
inactive: SK-MEL-5 1.34 µM | MDA-MB-435 2.78 µM | LOX IMVI 2.25 µM | Hs-578T 1.79 µM | OVCAR-5 5.81 µM | KM12 3.13 µM | MOLT-4 6.75 µM | HT-29 2.32 µM | SN12C 3.94 µM | UACC-62 4.13 µM | SF-539 4.82 µM | NCI-H522 1.16 µM | CAKI-1 7.85 µM | HL-60 2.51 µM | HCC 2998 6.12 µM | CCRF-CEM 4.3 µM | OVCAR-8 2.44 µM | A549 9.1 µM | ACHN 14 µM | RXF 393 9.77 µM | SF-268 7.89 µM | SK-MEL-2 1.79 µM | NCI-H460 2.64 µM | SNB-75 1.79 µM | UO-31 27 µM | NCI-H23 2.4 µM | SF-295 3.33 µM | OVCAR-4 12.6 µM | BT-549 1.23 µM | SNB-19 4.07 µM | PC-3 1.51 µM | HCT-116 2.67 µM | HOP-92 1.15 µM | M14 5.89 µM | MCF7 2.14 µM
active: T47D 0.698 µM | K562 0.942 µM | UACC-257 0.607 µM
40.5 µM: HCT-15

Cc1ccc2[nH]c3[nH]c(=O)[nH]c(=O)c3c2c1
> 100 µM: HCT-15
inactive: HOP-62 > 100 µM | SK-MEL-5 > 100 µM | T47D > 100 µM | OVCAR-3 > 100 µM | IGROV-1 > 100 µM | MDA-MB-435 > 100 µM | LOX IMVI > 100 µM | SW-620 > 100 µM | Hs-578T > 100 µM | OVCAR-5 > 100 µM | EKVX > 100 µM | MDA-N > 100 µM | TK-10 > 100 µM | KM12 43.6 µM | MOLT-4 > 100 µM | HT-29 > 100 µM | SN12C > 100 µM | UACC-62 > 100 µM | SF-539 > 100 µM | NCI-H522 > 100 µM | CAKI-1 > 100 µM | K562 > 100 µM | HL-60 > 100 µM | RPMI-8226 > 100 µM | CCRF-CEM > 100 µM | OVCAR-8 > 100 µM | Malme-3M > 100 µM | A549 > 100 µM | COLO 205 > 100 µM | SR > 10 µM | ACHN > 100 µM | 786-0 > 100 µM | RXF 393 > 100 µM | SF-268 > 100 µM | SK-MEL-2 > 100 µM | SNB-75 > 100 µM | UO-31 > 100 µM | NCI-H23 > 100 µM | NCI/ADR-RES > 100 µM | SF-295 58.3 µM | NCI-H226 > 100 µM | DU-145 > 100 µM | BT-549 > 100 µM | A498 > 100 µM | SNB-19 > 100 µM | UACC-257 > 100 µM | SK-OV-3 > 100 µM | HCT-116 > 100 µM | HOP-92 > 100 µM | M14 > 100 µM | MCF7 > 100 µM
